Assay results published in patent publication US7683057B2, “Kinase inhibitor compounds” (Tyrogenex, Inc., priority 2007, dated 2010).

Experiments:
AMPK (r) = experiment: AMPK Biochemical Assay; set-up: species or system rat; conditions: compared with sunitinib
Description: The compounds are assayed for biochemical activity essentially according to the following procedure. In a final reaction volume of 25 μl, AMPK (r) (5-10 mU) is incubated with 32 mM HEPES pH7.4, 0.65 mM DTT, 0.012% Brij-35, 200 μM AMP, 200 μM AMARAASAAALARRR, 10 mM MgAcetate and [(γ-33P-ATP] (specific activity approx. 500 cpm/pmol, concentration as required). The reaction is initiated by the addition of the MgATP mix. After incubation for 40 minutes at room temperature, the reaction is stopped by the addition of 5 μl of a 3% phosphoric acid solution. 10 μl of the reaction is then spotted onto a P30 filtermat and washed three times for 5 minutes in 75 mM phosphoric acid and once in methanol prior to drying and scintillation counting.

AMPK = conditions: proteomic study, literature; cited from earlier work

Compound	AMPK inhibitory activities (AMPK (r))	inhibition of AMPK (AMPK)
Cc1[nH]c(/C=C2\C(=O)Nc3ccc(F)cc32)c(C)c1C(=O)NC1CS(=O)(=O)CC1O (stereo not drawn) [Example 17, 5-[5-Fluoro-2-oxo-1,2-dihydro-indol-(3Z)-ylidenemethyl]-2,4-dimethyl-1H-pyrrole-3-carboxylic acid (4-hydroxy-1,1-dioxo-tetrahydro-thiophen-3-yl)-amide]	significantly less AMPK inhibitory activities than sunitinib	–
Cc1[nH]c(/C=C2\C(=O)Nc3ccc(F)cc32)c(C)c1C(=O)NC1CCN(C(=O)CO)CC1 [Example 22, 5-[5-Fluoro-2-oxo-1,2-dihydro-indol-(3Z)-ylidenemethyl]-2,4-dimethyl-1H-pyrrole-3-carboxylic acid [1-(2-hydroxy-acetyl)-piperidin-4-yl]-amide]	significantly less AMPK inhibitory activities than sunitinib	–
Cc1[nH]c(/C=C2\C(=O)Nc3ccc(F)cc32)c(C)c1C(=O)N[C@H]1CCNC1=O [Example 25, 5-[5-Fluoro-2-oxo-1,2-dihydro-indol-(3Z)-ylidenemethyl]-2,4-dimethyl-1H-pyrrole-3-carboxylic acid ((S)-2-oxo-pyrrolidin-3-yl)-amide]	significantly less AMPK inhibitory activities than sunitinib	–
Cc1[nH]c(/C=C2\C(=O)Nc3ccc(F)cc32)c(C)c1C(=O)N[C@H]1CCN(C(=O)C(=O)N(C)C)C1 [Example 29, 5-[5-Fluoro-2-oxo-1,2-dihydro-indol-(3Z)-ylidenemethyl]-2,4-dimethyl-1H-pyrrole-3-carboxylic acid ((S)-1-dimethylaminooxalyl-pyrrolidin-3-yl)-amide]	significantly less AMPK inhibitory activities than sunitinib	–
Cc1[nH]c(/C=C2\C(=O)Nc3ccc(F)cc32)c(C)c1C(=O)N[C@H]1CC[C@@H](C(=O)N2CCOCC2)CC1 [Example 30, 5-[5-Fluoro-2-oxo-1,2-dihydro-indol-(3Z)-ylidenemethyl]-2,4-dimethyl-1H-pyrrole-3-carboxylic acid [4-(morpholine-4-carbonyl)-cyclohexyl]-amide]	significantly less AMPK inhibitory activities than sunitinib	–
Cc1[nH]c(/C=C2\C(=O)Nc3ccc(F)cc32)c(C)c1C(=O)N[C@H]1CC[C@@H](C(=O)N2CCCC2)CC1 [Example 31, 5-[5-Fluoro-2-oxo-1,2-dihydro-indol-(3Z)-ylidenemethyl]-2,4-dimethyl-1H-pyrrole-3-carboxylic acid [4-(pyrrolidine-1-carbonyl)-cyclohexyl]-amide]	significantly less AMPK inhibitory activities than sunitinib	–
Cc1[nH]c(/C=C2\C(=O)Nc3ccc(F)cc32)c(C)c1C(=O)N[C@@H]1CCC[C@@H]1C(=O)N1CCCC1 [Example 36, 5-[5-Fluoro-2-oxo-1,2-dihydro-indol-(3Z)-ylidenemethyl]-2,4-dimethyl-1H-pyrrole-3-carboxylic acid [(1R,2S)-2-(pyrrolidine-1-carbonyl)-cyclopentyl]-amide]	significantly less AMPK inhibitory activities than sunitinib	–
Cc1[nH]c(/C=C2\C(=O)Nc3ccc(F)cc32)c(C)c1C(=O)N[C@@H]1CON(C2CCOCC2)C1=O [Example 48, 5-[5-Fluoro-2-oxo-1,2-dihydro-indol-(3Z)-ylidenemethyl]-2,4-dimethyl-1H-pyrrole-3-carboxylic acid [(R)-3-oxo-2-(tetrahydro-pyran-4-yl)-isoxazolidin-4-yl]-amide]	significantly less AMPK inhibitory activities than sunitinib	–
Cc1[nH]c(/C=C2\C(=O)Nc3ccccc32)c(C)c1CCC(=O)O [SU6668]	–	inhibits
